Data set [1] has as its system A/H1N1 virus A/Virginia/ATCC3/2009 (Virg09). The data set can be described thus: microbe, parasite or virus in culture. Type of data set: cell-based, influenza A virus.
Data set [2] concerns A/H1N1 virus A/PR/8/34 (PR8). The data set can be described thus: microbe, parasite or virus in culture. Type of data set: cell-based. The conditions noted are these: Influenza A virus, MDCK.
Data set [3] relates to A/H1N1 virus. Put plainly: microbe, parasite or virus in culture. Type of data set: cell-based, influenza A virus.
The nature of data set [4]: in vitro. The conditions noted are these: dog.
The subject of data set [5] is MDCK cells. The conditions noted are these: for Cytotoxicity MCC, Microscopy: dog.
In data set [6] the test system is A/H1N1 virus Virg09 in Calu-3 cells. Put plainly: microbe, parasite or virus in culture. In kind it is cell-based. The note with it: Influenza A virus, H1N1, Calu-3, 72 h, read-out: EC50 in Calu-3 cells infected with Virg09.
For data set [7], the system named is A/H1N1 (Virg09) pseudovirus. Put plainly: organism not typed. Type of data set: cell-based, influenza A virus. The conditions noted are these: for EC50: MDCK, 72 h, read-out: EC50 for A/H1N1 (Virg09) pseudovirus entry.
Data set [8] has as its system H1 HA protein (strain A/California/06/09). Type of data set: biochemical, influenza A virus.
Data set [9] has as its system H5 HA (strain A/duck/Hunan/795/2002). Type of data set: cell-based, influenza A virus.
Data set [10] deals with H1 HA (Influenza A virus, UniProt C3W5S1). The data set can be described thus: cell-based.
H1 HA, sequence (C3W5S1 18-344 limits assumed): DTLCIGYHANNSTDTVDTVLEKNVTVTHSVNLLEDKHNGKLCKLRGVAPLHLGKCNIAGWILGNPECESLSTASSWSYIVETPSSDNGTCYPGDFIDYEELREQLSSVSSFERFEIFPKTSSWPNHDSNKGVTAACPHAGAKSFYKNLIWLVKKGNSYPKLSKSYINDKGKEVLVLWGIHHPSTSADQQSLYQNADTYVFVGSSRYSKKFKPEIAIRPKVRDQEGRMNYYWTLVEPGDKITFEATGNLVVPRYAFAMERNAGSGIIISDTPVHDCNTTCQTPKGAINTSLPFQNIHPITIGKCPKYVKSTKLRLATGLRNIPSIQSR
H1 HA, sequence (C3W5S1 345-566 limits assumed): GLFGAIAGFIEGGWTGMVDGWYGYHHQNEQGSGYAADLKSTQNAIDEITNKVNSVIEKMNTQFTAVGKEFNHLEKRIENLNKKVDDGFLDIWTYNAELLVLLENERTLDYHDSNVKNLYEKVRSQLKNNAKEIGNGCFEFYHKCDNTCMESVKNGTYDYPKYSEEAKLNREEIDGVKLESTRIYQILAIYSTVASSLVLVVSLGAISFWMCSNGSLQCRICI
Data set [11] relates to A/H5N1 (FL22, A/bald eagle/FL/W22-114/2022) pseudovirus. The data set can be described thus: organism not typed. The note with it: read-out: EC50 for A/H5N1 (FL22) pseudovirus entry. Type of data set: cell-based, influenza A virus.
The mark [12] stands for this setting: Influenza A virus, MDCK, read-out: Antiviral EC50 for Virg09 virus.
Where [13] appears, read: read-out: Antiviral EC50 for PR8 virus.
[14] abbreviates: Influenza A virus, MDCK, read-out: Antiviral EC50 against A/H1N1 virus, Virg09 strain, MTS.
The mark [15] stands for this setting: Influenza A virus, MDCK, read-out: Antiviral EC50 against A/H1N1 virus, Virg09 strain, Microscopy.
Setting [16] is: read-out: Antiviral EC50 against A/H1N1 virus, Virg09 strain, MTS.
Setting [17] is: read-out: Antiviral EC50 against A/H1N1 virus, PR8 strain, MTS.
[18] abbreviates: read-out: Antiviral EC50 against A/H1N1 virus, PR8 strain, Microscopy.

The source of these data is PMC12434670 (Journal of Medicinal Chemistry, 2025).

Entries after “also recorded” stand apart in the source; their conditions may differ. Like-named read-outs stand apart in the source and are kept apart here. Bounds are passed on as bounds.

Take `Cc1cc(COC(=O)c2cc(F)cc(C(F)(F)F)c2)c(C)s1` [Compound 63, (2,5-Dimethylthiophen-3-yl)methyl 3-fluoro-5-(trifluoromethyl)benzoate]: the EC50 in data set [1] (setting [12]) and in data set [2] (setting [13]) was above 100 µM each time. In addition, the “Antiviral activity against A/H1N1 virus (in words)” value (shortened to “Antiviral activity”) in [3] is “Neither the ester 63 nor the secondary amine 64 showed antiviral activity; also recorded: inactive”.
`Cc1cc(CNCc2cc(F)cc(C(F)(F)F)c2)c(C)s1` [Compound 64, 1-(2,5-Dimethylthiophen-3-yl)-N-(3-fluoro-5-(trifluoromethyl)benzyl)methanamine]: the EC50 in data set [1] (setting [12]) and in data set [2] (setting [13]) was above 100 µM each time. The “Antiviral activity” value in data set [3] is “Neither the ester 63 nor the secondary amine 64 showed antiviral activity; also recorded: inactive”.
`Cc1cc(Cl)cc(C(=O)NCc2cc(C)sc2C)c1` [Compound 29, 3-Chloro-N-[(2,5-dimethylthiophen-3-yl)methyl]-5-methylbenzamide]: the EC50 in [1] (setting [12]) and in data set [2] (setting [13]) was above 100 µM each time. Also, the “Antiviral activity” value in [3] was “No activity”.
For the molecule `Cc1cc(C(=O)NCc2cc(F)cc(C(F)(F)F)c2)c(C)s1` [Compound 65, N-(3-Fluoro-5-(trifluoromethyl)benzyl)-2,5-dimethylthiophene-3-carboxamide], the EC50 in data set [1] (setting [12]) and in data set [2] (setting [13]) was above 100 µM in each case. In data set [3], the “Antiviral activity” value was “fully inactive”.
As for `Cc1cc(CNC(=O)c2cc(Br)cc(C(F)(F)F)c2)c(C)s1` [Compound 24, 3-Bromo-N-[(2,5-dimethylthiophen-3-yl)methyl]-5-(trifluoromethyl)benzamide], the EC50 in [1] (setting [12]) and in data set [2] (setting [13]) was above 100 µM throughout. Moreover, the “Antiviral activity” value in data set [3] is recorded as “abolished the antiviral activity”.
With `Cc1cc(CNC(=O)c2cc(F)cc(C(F)(F)F)c2)c(C)s1` [Compound 22, N-[(2,5-Dimethylthiophen-3-yl)methyl]-3-fluoro-5-(trifluoromethyl)benzamide], in data set [1], the “ΔΔG (exp), change VF-57a → labelled compound” value came to 0.2 kcal/mol. Besides, in data set [1], the “ΔΔG (exp), change labelled compound → VF-57a” value is recorded as “–0.2 kcal/mol”. For the same molecule, the EC50 in data set [1] (setting [14]) is 0.4 µM; in data set [1] (setting [15]) it was 1.7 ± 1.1 µM; in data set [1] (setting [12]) it was around 1 µM; in data set [1] (setting [16]), 0.44 ± 0.19 µM; in [2] (setting [17]) it was 1.1 ± 0.3 µM; in data set [2] (setting [18]), 1.5 ± 0.6 µM. For the same molecule, in data set [2] (setting [13]), the EC50 is around 1 µM. The molecule also displayed a CC50 in [4] above 100 µM. Also, the “Cytotoxicity at 100 μM (in words)” value in data set [5] is listed as “without showing any cytotoxicity”. Also, in [5], the “Cytotoxicity MCC, Microscopy” value is above 100 µM. The “Selectivity index (ratio of CC50 to EC50, SI)” value in data set [3] was above 100.
`Cc1cc(CNC(=O)c2cc(C(F)(F)F)c(F)c(F)c2F)c(C)s1` [Compound 36, N-((2,5-Dimethylthiophen-3-yl)methyl)-2,3,4-trifluoro-5-(trifluoromethyl)benzamide]: the EC50 in [1] (setting [12]) and in data set [2] (setting [13]) was above 100 µM each time. Besides, the “Antiviral activity” value in data set [3] was “abolished the antiviral effect”.
Turning to `Cc1cc(CNC(=O)c2cc(Cl)c(F)c(C(F)(F)F)c2)c(C)s1` [Compound 38, 3-Chloro-N-((2,5-dimethylthiophen-3-yl)methyl)-4-fluoro-5-(trifluoromethyl)benzamide], in data set [1], the “ΔΔG (exp), change VF-57a → labelled compound” value is given as “–0.3 kcal/mol”. Moreover, in data set [1], the “ΔΔG (exp), change labelled compound → VF-57a” value came to 0.3 kcal/mol. Further, the EC50 amounted to 0.1 µM in data set [1] (setting [14]); 3.1 ± 0.5 µM in [1] (setting [15]); 0.18 ± 0.04 µM in [1] (setting [16]); 0.27 ± 0.12 µM in [2] (setting [17]); 1.6 ± 0.8 µM in [2] (setting [18]). In addition, the CC50 in [4] is above 100 µM. Besides, the “Cytotoxicity MCC, Microscopy” value in [5] is 40 µM. Moreover, the “Antiviral activity” value in data set [3] is on record as “good antiviral activity”.
On to `Cc1cc(CNC(=O)c2cc(Cl)cc(C(F)(F)F)c2Cl)c(C)s1` [Compound 39, 2,5-Dichloro-N-((2,5-dimethylthiophen-3-yl)methyl)-3-(trifluoromethyl)benzamide], for which the EC50 in [1] (setting [14]) was found to be 0.82 ± 0.61 µM; in data set [1] (setting [15]) it was 8.1 ± 0.5 µM; in [2] (setting [17]), 5.9 ± 3.2 µM; in data set [2] (setting [18]) it was 11 ± 6 µM. For the same molecule, the CC50 in data set [4] was above 100 µM. For the same molecule, the “Cytotoxicity MCC, Microscopy” value in data set [5] worked out at 52 ± 25 µM. Also, the “Antiviral activity” value in data set [3] was “less active”.
For the molecule `Cc1cc(CNC(=O)c2cc(C(F)(F)F)cc(Cl)c2F)c(C)s1` [Compound 37, 3-Chloro-N-((2,5-dimethylthiophen-3-yl)methyl)-2-fluoro-5-(trifluoromethyl)benzamide], the EC50 in [1] (setting [14]) is above 100 µM; in data set [1] (setting [15]), above 100 µM; in data set [2] (setting [17]), 2.9 µM; in [2] (setting [18]), 1.6 ± 0.8 µM. The molecule also registered a CC50 in [4] above 100 µM. In addition, the “Cytotoxicity MCC, Microscopy” value in data set [5] was determined as 56 ± 22 µM. Further, the “Antiviral activity” value in data set [3] is “less active”.
For `O=C1c2c(O)c(=O)ccn2N([C@@H]2c3ccccc3SCc3c2ccc(F)c3F)[C@@H]2COCCN12` [BXA, baloxavir acid], the EC50 in data set [1] (setting [14]) was found to be 0.0032 ± 0.0004 µM; in [1] (setting [15]), 0.0035 µM; in [2] (setting [17]), 0.0061 ± 0.0017 µM; in [2] (setting [18]), 0.0061 ± 0.002 µM; in [6], 0.0011 µM. The “Cytotoxicity MCC, Microscopy” value in data set [5] is above 0.1 µM.
`Cc1cc(CNC(=O)c2cc(Cl)cc(C(F)(F)F)c2)c(C)s1` [Compound 23, 3-Chloro-N-[(2,5-dimethylthiophen-3-yl)methyl]-5-(trifluoromethyl)benzamide]: the EC50 is 0.3 µM in data set [1] (setting [14]); 0.71 ± 0.45 µM in [1] (setting [15]); 0.5 µM in [1] (setting [12]); 0.31 ± 0.12 µM in [1] (setting [16]); 0.3 µM in [7]; 0.92 ± 0.19 µM in [2] (setting [17]). Moreover, the EC50 in data set [2] (setting [18]) was 1.1 ± 0.2 µM; in [2] (setting [13]) it was 1 µM; in [6] it was 0.84 µM; in [10], 0.95 µM; in data set [3] (Influenza A virus, H1N1, MDCK, read-out: Antiviral EC50 against A/H1N1 virus), around 0.8 µM; in data set [11] (MDCK, 72 h) it was 0.8 µM. In data set [11], the EC50 was 0.81 µM. In data set [4], the CC50 was above 100 µM. Further, in [8], the “Binding of H1 HA to stem antibody C179 after acidic incubation (pH 5.2) in presence of compound” value is recorded as “remained significantly higher”. Besides, the “Effect of compound binding to HA (exposed to pH 7) on subsequent binding of antibody C179” value in data set [8] (pH 7) is “no effect”. In addition, the “Inhibition of H5 HA cell-cell fusion at 6.3 μM” value in data set [9] was “partial”. Besides, the “Inhibition of H5 HA cell-cell fusion at 25 μM” value in [9] is recorded as “almost complete”. For the same molecule, in [9], the “Inhibition of H5 HA cell-cell fusion at 100 μM” value is listed as “complete inhibition”. Further, the “Cytotoxicity MCC, Microscopy” value in data set [5] was above 100 µM.
On to `Cc1sccc1CNC(=O)c1cc(F)cc(C(F)(F)F)c1` [Compound 46, 3-Fluoro-N-((2-methylthiophen-3-yl)methyl)-5-(trifluoromethyl)benzamide], for which the “ΔΔG (exp), change VF-57a → labelled compound” value in data set [1] is listed as 1.8 kcal/mol. Moreover, the “ΔΔG (exp), change labelled compound → VF-57a” value in [1] is reported as “–1.8 kcal/mol”. The EC50 was 6.8 ± 6.5 µM in data set [1] (setting [14]), 8.3 ± 5.1 µM in [1] (setting [15]), 0.23 ± 0.08 µM in data set [2] (setting [17]) and 0.17 ± 0.04 µM in data set [2] (setting [18]). This molecule also had a CC50 in data set [4] above 100 µM. In addition, in data set [5], the “Cytotoxicity MCC, Microscopy” value is 67 ± 33 µM.
With `O=C(NCc1ccsc1)c1cc(F)cc(C(F)(F)F)c1` [Compound 47, 3-Fluoro-N-(Thiophen-3-ylmethyl)-5-(trifluoromethyl)benzamide], the “ΔΔG (exp), change VF-57a → labelled compound” value in [1] worked out at 1.9 kcal/mol. Besides, the “ΔΔG (exp), change labelled compound → VF-57a” value in data set [1] is “–1.9 kcal/mol”. Also, the EC50 in [1] (setting [14]) is 7.2 ± 4.1 µM; in [1] (setting [15]) it was 20 ± 8 µM; in [2] (setting [17]) it was 0.42 ± 0.1 µM; in data set [2] (setting [18]), 0.44 ± 0.16 µM. Besides, the CC50 in data set [4] was above 100 µM. Further, the “Cytotoxicity MCC, Microscopy” value in [5] is above 100 µM.
With `Cc1cc(CNC(=O)c2cc(C(F)(F)F)cc(C(F)(F)F)c2)c(C)s1` [Compound 25, N-[(2,5-Dimethylthiophen-3-yl)methyl]-3,5-bis(trifluoromethyl)benzamide], the EC50 in [1] (setting [12]) and in data set [2] (setting [13]) was above 100 µM in each case. In addition, in data set [3], the “Antiviral activity” value is reported as “abolished the antiviral activity”.
As to `CCOC(=O)c1c(CSc2ccccc2)n(C)c2cc(Br)c(O)c(CN(C)C)c12` [Arbidol, reference compound], in data set [7], the “Fold lower potency than VF-57a in pseudovirus entry” value is reported as around 20 fold and the EC50 turned out to be 15 µM. For the same molecule, the “Binding of H1 HA to stem antibody C179 after acidic incubation (pH 5.2) in presence of compound” value in data set [8] is “only slightly protected”. For the same molecule, in data set [11] (MDCK, 72 h), the EC50 worked out at 10 µM.
